{
  "source": "patent US20230405201A1",
  "about": "“TECHNIQUES FOR INCREASING RED BLOOD CELL COUNT” (FRESENIUS MEDICAL CARE HOLDINGS, INC., priority 2020, published 2023)",
  "key": {"[1]": {"test": "Serum concentration of CMPF in normal and uremic subjects", "assay_type": "in vivo, human", "conditions": "uremic versus average normal concentration", "experimental": "FIG. 4 illustrates carboxy-4-methyl-5-propyl-2-furanpropionate (CMPF) 401 in accordance with the present disclosure. CMPF is a 240 Da metabolite of furan fatty acids and a protein-bound uremic retention solute normally cleared by the healthy kidney. In CKD patients, CMPF levels are increased 5- to 15-fold compared to healthy subjects.\nAn average normal concentration for CMPF may be a mean (±SD) of about 4.6±1.8 with a range between about 3.6 and 7.7 mg/L. In uremic patients the mean concentration (CU) is about 25.9±10.2 mg/L (with a range of about 3.7 to 94 mg/L).\nAccordingly, the relative increase (CU/CN) may be over 5-times higher than the average normal concentration. […] As much as 99.5% of all CMPF may be found bound to HSA in serum. Consequently, this high association to HSA may prevent a sufficient secretion due to lower renal clearance rates in uremic patients, for example, at a rate of about 0.05 mL/min, compared to 0.40 mL/min for healthy patients. Due to its strong binding affinity to HSA, the removal of CMPF through conventional hemodialysis is generally difficult and even practically ineffective."}, "[2]": {"molecular_target": "human serum albumin (HSA) (Homo sapiens, UniProt P02768)", "sequence (P02768 25-609)": "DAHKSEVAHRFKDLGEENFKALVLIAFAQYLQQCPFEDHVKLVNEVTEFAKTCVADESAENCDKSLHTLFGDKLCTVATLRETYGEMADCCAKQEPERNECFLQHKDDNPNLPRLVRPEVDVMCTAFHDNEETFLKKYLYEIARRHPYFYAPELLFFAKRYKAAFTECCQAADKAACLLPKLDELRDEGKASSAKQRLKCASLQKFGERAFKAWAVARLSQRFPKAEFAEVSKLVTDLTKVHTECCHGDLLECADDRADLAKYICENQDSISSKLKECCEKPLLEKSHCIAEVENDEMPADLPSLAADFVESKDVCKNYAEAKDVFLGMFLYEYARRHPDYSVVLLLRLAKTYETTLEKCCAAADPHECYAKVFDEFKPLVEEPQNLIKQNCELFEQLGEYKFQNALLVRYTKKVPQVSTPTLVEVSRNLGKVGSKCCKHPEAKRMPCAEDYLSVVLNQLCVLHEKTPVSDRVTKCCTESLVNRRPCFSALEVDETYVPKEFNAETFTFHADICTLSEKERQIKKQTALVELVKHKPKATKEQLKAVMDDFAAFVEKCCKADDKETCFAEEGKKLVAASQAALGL", "conditions": "cited from earlier work"}, "[3]": {"molecular_target": "T1, HSA (Homo sapiens, UniProt P02768)", "T1 construct": "from tissue; host or cells: serum", "T1 sequence (P02768 25-609)": "as above", "conditions": "cited from earlier work"}, "[4]": {"conditions": "cited from earlier work"}, "[5]": {"conditions": "cited from earlier work", "remark": "listed apart in the source"}, "[6]": {"molecular_target": "HSA's binding site 1 (Homo sapiens, UniProt P02768)", "sequence (P02768 25-609)": "as above", "conditions": "cited from earlier work"}, "[7]": {"system": "Piezo1", "conditions": "cited from earlier work"}},
  "note": "Like-named read-outs stand apart in the source and are kept apart here.",
  "data": [
    {"smiles": "CCCc1oc(CCC(=O)O)c(C(=O)O)c1C", "note": "[CMPF, 3-carboxy-4-methyl-5-propyl-2-furanpropionate]", "values": [
      {"measurement": "relative increase (CU/CN)", "setting": "[1]", "result": "over 5 times"},
      {"measurement": "constant of association with HSA molecules", "setting": "[2]", "result": "about 10^8 M^−1"},
      {"measurement": "CMPF found bound to HSA in serum", "setting": "[3]", "result": "≤ 99.5", "unit": "%"},
      {"measurement": "renal clearance rate", "setting": "[4]; healthy patients", "result": 0.40, "unit": "mL/min"},
      {"measurement": "renal clearance rate", "setting": "[4]; uremic patients", "result": "about 0.05 mL/min"},
      {"measurement": "average normal concentration, mean (±SD)", "setting": "[5]; normal", "result": "about 4.6±1.8 mg/L"},
      {"measurement": "mean concentration (CU)", "setting": "[5]; uremic patients", "result": "about 25.9±10.2 mg/L"}
    ]},
    {"smiles": "CC(C)C1=CC(=O)C2(C)C(C1=O)C1(C)C(=O)C=C(C(C)C)C(=O)C21", "note": "(centres unmarked) [DTQ, dithymoquinone]", "values": [
      {"measurement": "binding affinity towards HSA's binding site 1 relative to CMPF", "setting": "[6]", "result": "higher binding affinity towards HSA's binding site 1 than CMPF"}
    ]},
    {"smiles": "Cc1oc(-c2ccccc2)cc1C(=O)O", "note": "[Jedi1]", "values": [
      {"measurement": "Piezo1 stimulation", "setting": "[7]", "result": "stimulate Piezo1"}
    ]},
    {"smiles": "Cc1oc(-c2cccs2)cc1C(=O)O", "note": "[Jedi2]", "values": [
      {"measurement": "Piezo1 stimulation", "setting": "[7]", "result": "stimulate Piezo1"}
    ]},
    {"smiles": "Clc1cccc(Cl)c1CSc1nnc(-c2cnccn2)s1", "note": "[Yoda1]", "values": [
      {"measurement": "Piezo1 stimulation", "setting": "[7]", "result": "stimulate Piezo1"}
    ]}
  ]
}
